Measured values reported in patent US6914045B2, “Glycopeptide antibiotics” (Wyeth Holdings Corporation, priority 2001, dated 2005).
Converted amounts (≈) assume the structure as drawn.

How the values were obtained:
Experiment in all cases: in vitro antibacterial evaluation, MIC by broth dilution
Format in all cases: cell-based
[1] = test system: Enterococcus sp.
Method in brief: (§1)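 Inoculum 5×10^5 CFU/mL; concentrations 64 to 0.06 μg/mL; MIC defined as lowest inhibitory level. Conducted by broth dilution under NCCLS guidelines.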

[2] = test system: Streptococcus sp.; settings: broth dilution, 18 hours at 35° C.
Method in brief: as §1

[3] = test system: Escherichia coli
Method in brief: as §1

[4] = test system: Staphylococcus sp.
Method in brief: as §1

[5] = Enterococcus faecalis (ATCC 29212); broth dilution, 18 hours at 35° C.
[6] = Enterococcus faecalis (GC 2242); broth dilution, 18 hours at 35° C.
[7] = Enterococcus faecalis (GC 4552); broth dilution, 18 hours at 35° C.
[8] = broth dilution, 18 hours at 35° C.; strain GC 4547
[9] = broth dilution, 18 hours at 35° C.

CSc1ccc(C2OCC3OC(OC4C(CO)OC(Oc5ccc(CC6NC(=O)C(C(C)c7ccccc7)NC(=O)CNC(=O)C(CO)NC(=O)C(C(O)C7CNC(=N)N7C7OC(CO)C(O)C(O)C7O)NC(=O)C(C(O)C7CNC(=N)N7)NC6=O)cc5)C(O)C4O)C(O)C(O)C3O2)cc1 (stereo not drawn) [Example 144]
MIC Enterococcus avium (GC 4558) ([1]; Enterococcus avium (GC 4558); broth dilution, 18 hours at 35° C.): 4 µg/mL (≈ 2.8 µM) | MIC Enterococcus faecalis (ATCC 29212) [1, 5]: 2 µg/mL (≈ 1.4 µM) | MIC Enterococcus faecalis (GC 2242) [1, 6]: 2 µg/mL (≈ 1.4 µM) | MIC Enterococcus faecalis (GC 2691) ([1]; Enterococcus faecalis (GC 2691); broth dilution, 18 hours at 35° C.): 2 µg/mL (≈ 1.4 µM) | MIC Enterococcus faecalis (GC 3059) ([1]; Enterococcus faecalis (GC 3059); broth dilution, 18 hours at 35° C.): 4 µg/mL (≈ 2.8 µM) | MIC Enterococcus faecalis (GC 4552) [1, 7]: 2 µg/mL (≈ 1.4 µM) | MIC Enterococcus faecalis (GC 4553) ([1]; Enterococcus faecalis (GC 4553); broth dilution, 18 hours at 35° C.): 4 µg/mL (≈ 2.8 µM) | MIC Enterococcus faecalis (GC 4554) ([1]; Enterococcus faecalis (GC 4554); broth dilution, 18 hours at 35° C.): 4 µg/mL (≈ 2.8 µM) | MIC Enterococcus faecalis (GC 6189) ([1]; Enterococcus faecalis (GC 6189); broth dilution, 18 hours at 35° C.): 2 µg/mL (≈ 1.4 µM) | MIC Enterococcus faecium (GC 2243) ([1]; Enterococcus faecium (GC 2243); broth dilution, 18 hours at 35° C.): 2 µg/mL (≈ 1.4 µM) | MIC Enterococcus faecium (GC 4556) ([1]; Enterococcus faecium (GC 4556); broth dilution, 18 hours at 35° C.): 2 µg/mL (≈ 1.4 µM) | MIC Enterococcus faecium (GC 4557) ([1]; Enterococcus faecium (GC 4557); broth dilution, 18 hours at 35° C.): 2 µg/mL (≈ 1.4 µM) | MIC Enterococcus faecalis (ATCC 29212) ([1]; strain ATCC 29212; broth dilution, 18 hours at 35° C.): 2 µg/mL (≈ 1.4 µM) | MIC Enterococcus faecalis (GC 2242) ([1]; strain GC 2242; broth dilution, 18 hours at 35° C.): 2 µg/mL (≈ 1.4 µM) | MIC Enterococcus faecium (GC 2243) ([1]; strain GC 2243; broth dilution, 18 hours at 35° C.): 2 µg/mL (≈ 1.4 µM) | MIC Enterococcus faecalis (GC 2691) ([1]; strain GC 2691; broth dilution, 18 hours at 35° C.): 2 µg/mL (≈ 1.4 µM) | MIC Enterococcus faecalis (GC 3059) ([1]; strain GC 3059; broth dilution, 18 hours at 35° C.): 4 µg/mL (≈ 2.8 µM) | MIC Enterococcus faecalis (GC 4552) ([1]; strain GC 4552; broth dilution, 18 hours at 35° C.): 2 µg/mL (≈ 1.4 µM) | MIC Enterococcus faecalis (GC 4553) ([1]; strain GC 4553; broth dilution, 18 hours at 35° C.): 4 µg/mL (≈ 2.8 µM) | MIC Enterococcus faecalis (GC 4554) ([1]; strain GC 4554; broth dilution, 18 hours at 35° C.): 4 µg/mL (≈ 2.8 µM) | MIC Enterococcus faecium (GC 4556) ([1]; strain GC 4556; broth dilution, 18 hours at 35° C.): 2 µg/mL (≈ 1.4 µM) | MIC Enterococcus faecium (GC 4557) ([1]; strain GC 4557; broth dilution, 18 hours at 35° C.): 2 µg/mL (≈ 1.4 µM) | MIC Enterococcus avium (GC 4558) ([1]; strain GC 4558; broth dilution, 18 hours at 35° C.): 4 µg/mL (≈ 2.8 µM) | MIC Enterococcus faecalis (GC 6189) ([1]; strain GC 6189; broth dilution, 18 hours at 35° C.): 2 µg/mL (≈ 1.4 µM) | MIC Streptococcus agalactiae (GC 4564) ([2]; Streptococcus agalactiae (GC 4564)): <0.06 µg/mL | MIC Streptococcus pneumoniae (ATCC 6301) ([2]; Streptococcus pneumoniae (ATCC 6301)): <0.06 µg/mL | MIC Streptococcus pneumoniae (GC 1894) ([2]; Streptococcus pneumoniae (GC 1894)): <0.06 µg/mL | MIC Streptococcus pneumoniae (GC 4565) ([2]; Streptococcus pneumoniae (GC 4565)): <0.06 µg/mL | MIC Streptococcus pyogenes (GC 4563) ([2]; Streptococcus pyogenes (GC 4563)): <0.06 µg/mL | MIC Streptococcus pneumoniae (ATCC 6301) ([2]; strain ATCC 6301): <0.06 µg/mL | MIC Streptococcus pneumoniae (GC 1894) ([2]; strain GC 1894): <0.06 µg/mL | MIC Streptococcus pyogenes (GC 4563) ([2]; strain GC 4563): <0.06 µg/mL | MIC Streptococcus agalactiae (GC 4564) ([2]; strain GC 4564): <0.06 µg/mL | MIC Streptococcus pneumoniae (GC 4565) ([2]; strain GC 4565): <0.06 µg/mL | MIC Escherichia coli (ATCC 25922) ([3]; strain ATCC 25922, 18 hours at 35° C.): 32 µg/mL (≈ 22.4 µM) | MIC Escherichia coli (GC 4559) ([3]; strain GC 4559, 18 hours at 35° C.): 32 µg/mL (≈ 22.4 µM) | MIC Staphylococcus aureus (GC 1131) ([4]; broth dilution, 18 hours at 35° C., inoculum 5×10^5 CFU/mL; strain GC 1131): 1 µg/mL (≈ 0.7 µM) | MIC Staphylococcus aureus (ATCC 29213) ([4]; broth dilution, 18 hours at 35° C.; strain ATCC 29213): 2 µg/mL (≈ 1.4 µM) | MIC Staphylococcus aureus (GC 1131) ([4]; broth dilution, 18 hours at 35° C.; strain GC 1131): 1 µg/mL (≈ 0.7 µM) | MIC Staphylococcus aureus (GC 3051) ([4]; broth dilution, 18 hours at 35° C.; strain GC 3051): 1 µg/mL (≈ 0.7 µM) | MIC Staphylococcus aureus (GC 3053) ([4]; broth dilution, 18 hours at 35° C.; strain GC 3053): 1 µg/mL (≈ 0.7 µM) | MIC Staphylococcus aureus (GC 4541) ([4]; broth dilution, 18 hours at 35° C.; strain GC 4541): 0.5 µg/mL (≈ 0.35 µM) | MIC Staphylococcus aureus (GC 4542) ([4]; broth dilution, 18 hours at 35° C.; strain GC 4542): 0.5 µg/mL (≈ 0.35 µM) | MIC Staphylococcus aureus-SMITH (GC 4543) ([4]; broth dilution, 18 hours at 35° C.; strain GC 4543): 1 µg/mL (≈ 0.7 µM) | MIC Staphylococcus aureus (GC 4544) ([4]; broth dilution, 18 hours at 35° C.; strain GC 4544): 4 µg/mL (≈ 2.8 µM) | MIC Staphylococcus aureus (GC 4545) ([4]; broth dilution, 18 hours at 35° C.; strain GC 4545): 1 µg/mL (≈ 0.7 µM) | MIC Staphylococcus haemolyticus (GC 4546) ([4]; broth dilution, 18 hours at 35° C.; strain GC 4546): 1 µg/mL (≈ 0.7 µM) | MIC Coagulase Negative Staphylococcus (GC 4547) [4, 8]: 1 µg/mL (≈ 0.7 µM) | MIC Coagulase Negative Staphylococcus (GC 4548) ([4]; broth dilution, 18 hours at 35° C.; strain GC 4548): 0.25 µg/mL (≈ 0.175 µM) | MIC Coagulase Negative Staphylococcus (GC 4549) ([4]; broth dilution, 18 hours at 35° C.; strain GC 4549): 0.12 µg/mL (≈ 0.0839 µM) | MIC Coagulase Negative Staphylococcus (GC 4551) ([4]; broth dilution, 18 hours at 35° C.; strain GC 4551): 0.5 µg/mL (≈ 0.35 µM) | MIC Coagulase Negative Staphylococcus (GC 6257) ([4]; broth dilution, 18 hours at 35° C.; strain GC 6257): 0.25 µg/mL (≈ 0.175 µM) | MIC Staphylococcus aureus-SMITH (GC 4543) ([4]; broth dilution, 18 hours at 35° C.; strain SMITH GC 4543): 1 µg/mL (≈ 0.7 µM)

CC(c1ccccc1)C1NC(=O)CNC(=O)C(CO)NC(=O)C(C(O)C2CNC(=N)N2C2OC(CO)C(O)C(O)C2O)NC(=O)C(C(O)C2CNC(=N)N2)NC(=O)C(Cc2ccc(OC3OC(COC(=O)CCC4CCCC4)C(OC4OC(CO)C(O)C(O)C4O)C(O)C3O)cc2)NC1=O (stereo not drawn) [Example 100b]
MIC Enterococcus faecalis (ATCC 29212) [1, 5]: 8 µg/mL (≈ 5.64 µM) | MIC Enterococcus faecalis (GC 2242) [1, 6]: 8 µg/mL (≈ 5.64 µM) | MIC Enterococcus faecalis (GC 4552) [1, 7]: 8 µg/mL (≈ 5.64 µM) | MIC Enterococcus faecalis (ATCC 29212) ([1]; broth dilution, 18 hours at 35° C.; strain ATCC 29212): 8 µg/mL (≈ 5.64 µM) | MIC Enterococcus faecalis (GC 2242) ([1]; broth dilution, 18 hours at 35° C.; strain GC 2242): 8 µg/mL (≈ 5.64 µM) | MIC Enterococcus faecalis (GC 4552) ([1]; broth dilution, 18 hours at 35° C.; strain GC 4552): 8 µg/mL (≈ 5.64 µM) | MIC Escherichia coli (GC 4559) ([3]; 18 hours at 35° C., strain GC 4559): >128 µg/mL | MIC Escherichia coli (GC 4560) ([3]; 18 hours at 35° C., strain GC 4560): 0.5 µg/mL (≈ 0.352 µM) | MIC Coagulase Negative Staphylococcus (GC 4537) [4, 9]: 2 µg/mL (≈ 1.41 µM) | MIC Coagulase Negative Staphylococcus (GC 4538) [4, 9]: 1 µg/mL (≈ 0.704 µM) | MIC Coagulase Negative Staphylococcus (GC 4547) [4, 9]: 1 µg/mL (≈ 0.704 µM) | MIC Staphylococcus aureus (ATCC 29213) [4, 9]: 2 µg/mL (≈ 1.41 µM) | MIC Staphylococcus aureus (GC 1131) [4, 9]: 2 µg/mL (≈ 1.41 µM) | MIC Staphylococcus aureus (GC 4535) [4, 9]: 2 µg/mL (≈ 1.41 µM) | MIC Staphylococcus aureus-SMITH (GC 4536) [4, 9]: 2 µg/mL (≈ 1.41 µM) | MIC Coagulase Negative Staphylococcus (GC 4537) ([4]; broth dilution, 18 hours at 35° C.; strain GC 4537): 2 µg/mL (≈ 1.41 µM) | MIC Coagulase Negative Staphylococcus (GC 4538) ([4]; broth dilution, 18 hours at 35° C.; strain GC 4538): 1 µg/mL (≈ 0.704 µM) | MIC Coagulase Negative Staphylococcus (GC 4547) [4, 8]: 1 µg/mL (≈ 0.704 µM) | MIC Staphylococcus aureus (ATCC 29213) ([4]; strain ATCC 29213; broth dilution, 18 hours at 35° C.): 2 µg/mL (≈ 1.41 µM) | MIC Staphylococcus aureus (GC 1131) ([4]; strain GC 1131; broth dilution, 18 hours at 35° C.): 2 µg/mL (≈ 1.41 µM) | MIC Staphylococcus aureus (GC 4535) ([4]; strain GC 4535; broth dilution, 18 hours at 35° C.): 2 µg/mL (≈ 1.41 µM) | MIC Staphylococcus aureus-SMITH (GC 4536) ([4]; strain GC 4536; broth dilution, 18 hours at 35° C.): 2 µg/mL (≈ 1.41 µM)
